{
  "source": "paper PMC2914301",
  "about": "(Cancer research, 2009)",
  "key": {"[1]": {"target": "T1, PH domain of PDK1 (Homo sapiens, UniProt O15530)", "T1 sequence (O15530 459-550 limits assumed)": "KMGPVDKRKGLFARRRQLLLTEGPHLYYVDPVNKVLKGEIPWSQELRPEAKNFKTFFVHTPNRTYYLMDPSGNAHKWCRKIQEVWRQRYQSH", "test": "SPR competitive binding"}, "[2]": {"tested_on": "Panc-1", "test": "Morphologic apoptosis assay in Panc-1 cells", "format": "cell-based, Human"}, "[3]": {"tested_on": "GSK3β and p70S6K", "test": "Western analysis of AKT downstream targets in BxPC-3 cells", "format": "cell-based, Human", "conditions": "Western blot"}, "[4]": {"test": "Preliminary single-dose toxicity, i.p.", "format": "in vivo", "conditions": "single doses up to 250 mg/kg i.p.; preliminary studies"}, "[5]": {"tested_on": "MiaPaCa-2", "test": "Morphologic apoptosis assay in MiaPaCa-2 cells", "format": "cell-based, Human"}, "[6]": {"target": "T1, PH domain of PDK1", "test": "SPR direct binding to PDK1 PH domain"}, "[7]": {"tested_on": "phospho-Ser^241-PDK1", "test": "Western analysis of phospho-Ser241-PDK1 in BxPC-3 cells", "format": "cell-based, Human", "conditions": "at higher concentrations"}, "[8]": {"tested_on": "BxPC-3 pancreatic cancer xenografts", "test": "Antitumor activity against BxPC-3 xenografts in scid mice", "format": "in vivo", "conditions": "125 mg/kg i.p. twice a day for 5 days"}},
  "note": "“Also recorded” adds a separate entry of the source.",
  "data": [
    {"compound": "CCCCCCCCCCCCc1ccc(S(=O)(=O)Nc2nncs2)cc1", "note": "[Compound 27, 4-dodecyl-N-(1,3,4-thiadiazol-2-yl) benzenesulfonamide]", "values": [
      {"measurement": "Ki", "setting": "[1]", "result": 5.5, "unit": "µM"},
      {"measurement": "Apoptosis at 20 μmol/L", "setting": "[2]", "result": "40.0 ± 2.9", "unit": "%"},
      {"measurement": "Effect on GSK3β and p70S6K phosphorylation (in words)", "setting": "[3]", "result": "inhibited in a dose-dependent manner"},
      {"measurement": "Toxicity of single doses", "setting": "[4]", "result": "no toxicity"},
      {"measurement": "Apoptosis at 20 μmol/L", "setting": "[5]", "result": "31.3 ± 1.6", "unit": "%"},
      {"measurement": "Kd", "setting": "[6]", "result": 90.1, "unit": "µM"},
      {"measurement": "Effect on phosphorylation of PDK1 on Ser241 (in words)", "setting": "[7]", "result": "slightly affected"},
      {"measurement": "Antitumor activity", "setting": "[8]", "result": "significant antitumor activity with cessation of tumor growth and even regression; also recorded: complete cessation of tumor growth and even some regression"}
    ]}
  ]
}
